Values joined by “and” are separate entries in the source; they are usually repeats but may differ in a detail not shown here. Equal values may be shown once. Read-outs that look alike come from different tables or passages of the source.
Columns and labels:
SFRP-1 [1] = molecular target: T1, SFRP-1 (Homo sapiens, UniProt Q8N474); assay: Fluorescence polarization binding assay (competitive displacement of a probe compound from SFRP-1); details: fluorescence anisotropy, 45 nM SFRP-1, 20 nM probe;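 further: test compound competes with a fluorescent probe held by SFRP-1, seen as a drop in probe anisotropy after incubation in darkness, with anisotropy as function of rising compound dose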
T1 sequence (Q8N474 32-314): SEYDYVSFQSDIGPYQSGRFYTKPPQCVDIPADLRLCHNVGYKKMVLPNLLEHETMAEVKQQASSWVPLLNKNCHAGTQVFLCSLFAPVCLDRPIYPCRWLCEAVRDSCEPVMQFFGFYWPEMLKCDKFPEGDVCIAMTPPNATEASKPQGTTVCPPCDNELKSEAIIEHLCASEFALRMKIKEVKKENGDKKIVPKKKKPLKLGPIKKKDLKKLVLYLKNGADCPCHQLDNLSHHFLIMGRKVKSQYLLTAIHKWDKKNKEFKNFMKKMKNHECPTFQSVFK

SFRP-1 [2] = molecular target: T1, SFRP-1; assay: Cell-based assay for in vitro measurement of SFRP-1/SARP2 antagonist activity (U2OS cells co-transfected with 16x TCF-tk-Luciferase reporter, Wnt and hSFRP-1); details: for fold induction at 10 µM / fold induction at 15 µM: U2OS; for fold induction at 10 µM: read-out: Fold Induction with SFRP-1, U2OS cells, single dose 10 μM, luciferase reporter, fold induction over SFRP-1 control;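 on all read-outs here: U2OS cells co-transfected with a TCF-tk luciferase reporter, a Wnt vector, hSFRP-1 or empty vector and CMV-βgal, luciferase luminescence read in cell lysates alongside βgal activity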
[3] = read-out: Fold Induction with SFRP-1, Conc 15 μM, with SFRP-1, fold induction over SFRP-1 control, single dose
[4] = read-out: Fold Induction without SFRP-1, Conc 15 μM, without SFRP-1, single dose
[5] = read-out: Fold Induction with SFRP-1, Conc 15 μM, single dose, luciferase reporter, fold induction over SFRP-1 control, cells with SFRP-1
[6] = read-out: Fold Induction without SFRP-1, Conc 15 μM, single dose, luciferase reporter, cells without SFRP-1 (specificity control)

## O=C(c1ccc(F)c(F)c1)N1CCC(NS(=O)(=O)c2cc(S(=O)(=O)c3ccccc3)ccc2C(F)(F)F)CC1 [Example 705, N-[1-(3,4-difluorobenzoyl)piperidin-4-yl]-5-(phenylsulfonyl)-2-(trifluoromethyl)benzenesulfonamide]
SFRP-1 [1]
  IC50: 200 nM
SFRP-1 [2]
  EC50: 787 nM
  fold induction at 10 µM: 3.5

## O=S(=O)(NC1Cc2ccc(O)cc2C1)c1cc(S(=O)(=O)c2ccccc2)ccc1C(F)(F)F (stereo not shown) [Example 1004, N-(5-hydroxy-2,3-dihydro-1H-inden-2-yl)-5-(phenylsulfonyl)-2-(trifluoromethyl)benzenesulfonamide]
SFRP-1 [1]
  IC50: 60 nM
SFRP-1 [2]
  EC50: 473 nM

## CCc1ccc(S(=O)(=O)c2ccccc2)cc1S(=O)(=O)NCCCOC [Example 227, 2-ethyl-N-(3-methoxypropyl)-5-(phenylsulfonyl)benzenesulfonamide]
SFRP-1 [1]
  IC50: 4000 nM
SFRP-1 [2]; [3]
  fold induction at 15 µM: 2.7
SFRP-1 [2]; [4]
  fold induction at 15 µM: 0.8

## Cc1ccc(S(=O)(=O)c2ccc(C(C)(C)C)cc2)cc1S(=O)(=O)NC1CCOCC1 [Example 440, 5-[(4-tert-butylphenyl)sulfonyl]-2-methyl-N-(tetrahydro-2H-pyran-4-yl)benzenesulfonamide]
SFRP-1 [1]
  IC50: 3000 nM
SFRP-1 [2]; [3]
  fold induction at 15 µM: 1.8
SFRP-1 [2]; [4]
  fold induction at 15 µM: 1.1

## CCCc1ccc(S(=O)(=O)c2ccccc2)cc1S(=O)(=O)NCCc1cccnc1 [Example 876, 5-(Phenylsulfonyl)-2-propyl-N-(2-pyridin-3-ylethyl)benzenesulfonamide]
SFRP-1 [1]
  IC50: 800 nM
SFRP-1 [2]
  EC50: 1360 nM
  fold induction at 10 µM: 3

## O=S(=O)(NCCCN1CCOCC1)c1cc(S(=O)(=O)c2ccccc2)ccc1C(F)(F)F [Example 767, N-(3-morpholin-4-ylpropyl)-5-(phenylsulfonyl)-2-(trifluoromethyl)benzenesulfonamide]
SFRP-1 [1]
  IC50: 900 nM
SFRP-1 [2]
  fold induction at 10 µM: 3.6

## CN(CCNS(=O)(=O)c1cc(S(=O)(=O)c2ccccc2)ccc1C(F)(F)F)C(=O)OC(C)(C)C [Example 793, tert-Butyl methyl[2-({[5-(phenylsulfonyl)-2-(trifluoromethyl)phenyl]sulfonyl}amino)ethyl]carbamate]
SFRP-1 [1]
  IC50: 600 nM
SFRP-1 [2]
  EC50: 1540 nM
  fold induction at 10 µM: 2.5

## CC(C)(C)OC(=O)N1CCC[C@H]1C(=O)N1CCC(NS(=O)(=O)c2cc(S(=O)(=O)c3cccc(C#N)c3)ccc2C(F)(F)F)CC1 [Example 1095, tert-butyl (2S)-2-{[4-({[5-[(3-cyanophenyl)sulfonyl]-2-(trifluoromethyl)phenyl]sulfonyl}amino)piperidin-1-yl]carbonyl}pyrrolidine-1-carboxylate]
SFRP-1 [1]
  IC50: 60 nM
SFRP-1 [2]
  EC50: 374 nM

## CN(CCNS(=O)(=O)c1cc(S(=O)(=O)c2ccccc2)ccc1C(F)(F)F)C(=O)N(C)c1ccccc1 [Example 836, N-[2-(methyl{[methyl(phenyl)amino]carbonyl}amino)ethyl]-5-(phenylsulfonyl)-2-(trifluoromethyl)benzenesulfonamide]
SFRP-1 [1]
  IC50: 210 nM
SFRP-1 [2]
  EC50: 1990 nM
  fold induction at 10 µM: 2.8

## O=S(=O)(NCCN1CCOCC1)c1cc(S(=O)(=O)c2ccccc2)ccc1C(F)(F)F [Example 766, N-(2-morpholin-4-ylethyl)-5-(phenylsulfonyl)-2-(trifluoromethyl)benzenesulfonamide]
SFRP-1 [1]
  IC50: 400 nM
SFRP-1 [2]
  EC50: 1220 nM
  fold induction at 10 µM: 2.7

## CC(C)c1ccc(S(=O)(=O)c2ccc(F)cc2)cc1S(=O)(=O)NC1CCNCC1 [Example 520, 5-[(4-fluorophenyl)sulfonyl]-2-isopropyl-N-piperidin-4-ylbenzenesulfonamide]
SFRP-1 [1]
  IC50: 2400 nM
SFRP-1 [2]; [5]
  fold induction at 15 µM: 3.3
SFRP-1 [2]; [6]
  fold induction at 15 µM: 1.1

## O=C(O)c1ccc(-c2cccc(CNS(=O)(=O)c3cc(S(=O)(=O)c4ccccc4)ccc3C(F)(F)F)c2)cc1 [Example 997, 3′-[({[5-(phenylsulfonyl)-2-(trifluoromethyl)phenyl]sulfonyl}amino)methyl]biphenyl-4-carboxylic acid]
SFRP-1 [1]
  IC50: 900 nM
SFRP-1 [2]
  EC50: 3080 nM

## CN(CCNS(=O)(=O)c1cc(S(=O)(=O)c2ccccc2)ccc1C(F)(F)F)S(=O)(=O)c1cccc(C(=O)O)c1 [Example 883, 3-({methyl[2-({[5-(phenylsulfonyl)-2-(trifluoromethyl)phenyl]sulfonyl}amino)ethyl]amino}sulfonyl)benzoic acid]
SFRP-1 [1]
  IC50: 400 nM
SFRP-1 [2]
  EC50: 2570 nM
  fold induction at 10 µM: 2.7

## O=S(=O)(NCc1ccncc1)c1cc(S(=O)(=O)c2ccccc2)ccc1C(F)(F)F [Example 949, 5-(phenylsulfonyl)-N-(pyridin-4-ylmethyl)-2-(trifluoromethyl)benzenesulfonamide]
SFRP-1 [1]
  IC50: 800 nM
SFRP-1 [2]
  EC50: 1000 nM
  fold induction at 10 µM: 3.2

## Cc1ccc(S(=O)(=O)c2ccccc2)cc1S(=O)(=O)NC1CCN(S(=O)(=O)c2cccs2)CC1 [Example 482, 2-methyl-5-(phenylsulfonyl)-N-[1-(2-thienylsulfonyl)piperidin-4-yl]benzenesulfonamide]
SFRP-1 [1]
  IC50: 800 nM
SFRP-1 [2]; [3]
  fold induction at 15 µM: 3.2
SFRP-1 [2]; [4]
  fold induction at 15 µM: 1.1

## CN(CCNS(=O)(=O)c1cc(S(=O)(=O)c2ccccc2)ccc1C(F)(F)F)C(=O)CCC(=O)O [Example 897, 4-{methyl[2-({[5-(phenylsulfonyl)-2-(trifluoromethyl)phenyl]sulfonyl}amino)ethyl]amino}-4-oxobutanoic acid]
SFRP-1 [1]
  IC50: 500 nM
SFRP-1 [2]
  EC50: 1360 nM
  fold induction at 10 µM: 2.7

## O=C(c1ccccc1)c1ccc(C(=O)N2CCC(NS(=O)(=O)c3cc(S(=O)(=O)c4ccccc4)ccc3C(F)(F)F)CC2)cc1 [Example 800, N-[1-(4-benzoylbenzoyl)piperidin-4-yl]-5-(phenylsulfonyl)-2-(trifluoromethyl)benzenesulfonamide]
SFRP-1 [1]
  IC50: 400 nM
SFRP-1 [2]
  EC50: 738 nM
  fold induction at 10 µM: 3.6

## O=C(CN1CCC(NS(=O)(=O)c2cc(S(=O)(=O)c3ccccc3)ccc2C(F)(F)F)CC1)N1CCOCC1 [Example 1087, N-[1-(2-morpholin-4-yl-2-oxoethyl)piperidin-4-yl]-5-(phenylsulfonyl)-2-(trifluoromethyl)benzenesulfonamide]
SFRP-1 [1]
  IC50: 130 nM
SFRP-1 [2]
  EC50: 746 nM

## COc1ccc(S(=O)(=O)c2ccc(C)c(S(=O)(=O)NCCc3ccccn3)c2)c(OC)c1 [Example 423, 5-[(2,4-dimethoxyphenyl)sulfonyl]-2-methyl-N-(2-pyridin-2-ylethyl)benzenesulfonamide]
SFRP-1 [1]
  IC50: 10000 nM
SFRP-1 [2]; [3]
  fold induction at 15 µM: 2.4
SFRP-1 [2]; [4]
  fold induction at 15 µM: 1.1

## Cc1ccc(S(=O)(=O)c2ccccc2)cc1S(=O)(=O)NC1CCN(Cc2ccccc2)CC1 [Example 413, N-(1-benzylpiperidin-4-yl)-2-methyl-5-(phenylsulfonyl)benzenesulfonamide]
SFRP-1 [1]
  IC50: 5000 nM
SFRP-1 [2]; [3]
  fold induction at 15 µM: 2.2
SFRP-1 [2]; [4]
  fold induction at 15 µM: 1.4

## Cc1nn(C)c(Cl)c1S(=O)(=O)c1ccc(C(C)C)c(S(=O)(=O)NCCc2ccccn2)c1 [Example 512, 5-[(5-chloro-1,3-dimethyl-1H-pyrazol-4-yl)sulfonyl]-2-isopropyl-N-(2-pyridin-2-ylethyl)benzenesulfonamide]
SFRP-1 [1]
  IC50: 1000 nM
SFRP-1 [2]; [5]
  fold induction at 15 µM: 3.1
SFRP-1 [2]; [6]
  fold induction at 15 µM: 1.1

## CC(C)c1ccc(S(=O)(=O)c2ccc(F)cc2)cc1S(=O)(=O)NCCc1ccncc1 [Example 533, 5-[(4-fluorophenyl)sulfonyl]-2-isopropyl-N-(2-pyridin-4-ylethyl)benzenesulfonamide]
SFRP-1 [1]
  IC50: 500 nM
SFRP-1 [2]; [5]
  fold induction at 15 µM: 3.7
SFRP-1 [2]; [6]
  fold induction at 15 µM: 1.1

## COC(=O)CN(C)CCNS(=O)(=O)c1cc(S(=O)(=O)c2ccccc2)ccc1C(F)(F)F [Example 906, methyl N-methyl-N-[2-({[5-(phenylsulfonyl)-2-(trifluoromethyl)phenyl]sulfonyl}amino)ethyl]glycinate]
SFRP-1 [1]
  IC50: 900 nM
SFRP-1 [2]
  EC50: 1340 nM
  fold induction at 10 µM: 2.9

## CC(C)c1ccc(S(=O)(=O)c2ccc(N(C)C)cc2)cc1S(=O)(=O)NCC1CCOCC1 [Example 545, 5-{[4-(dimethylamino)phenyl]sulfonyl}-2-isopropyl-N-(tetrahydro-2H-pyran-4-ylmethyl)benzenesulfonamide]
SFRP-1 [1]
  IC50: 2000 nM and 4000 nM
SFRP-1 [2]; [5]
  fold induction at 15 µM: 2.5
SFRP-1 [2]; [6]
  fold induction at 15 µM: 1.1

## COc1cccc(S(=O)(=O)c2ccc(C(F)(F)F)c(S(=O)(=O)NC3CCN(C(=O)c4ccc(C(C)(C)C)cc4)CC3)c2)c1 [Example 746, N-[1-(4-tert-butylbenzoyl)piperidin-4-yl]-5-[(3-methoxyphenyl)sulfonyl]-2-(trifluoromethyl)benzenesulfonamide]
SFRP-1 [1]
  IC50: 300 nM
SFRP-1 [2]
  EC50: 453 nM
  fold induction at 10 µM: 5

## CN(CCNS(=O)(=O)c1cc(S(=O)(=O)c2ccccc2)ccc1C(F)(F)F)C(=O)c1ccco1 [Example 837, N-Methyl-N-[2-({[5-(phenylsulfonyl)-2-(trifluoromethyl)phenyl]sulfonyl}amino)ethyl]-2-furamide]
SFRP-1 [1]
  IC50: 180 nM
SFRP-1 [2]
  EC50: 644 nM
  fold induction at 10 µM: 3.4

## COc1cccc(C(=O)N2CCC(NS(=O)(=O)c3cc(S(=O)(=O)c4ccccc4)ccc3C)CC2)c1 [Example 463, N-[1-(3-methoxybenzoyl)piperidin-4-yl]-2-methyl-5-(phenylsulfonyl)benzenesulfonamide]
SFRP-1 [1]
  IC50: 700 nM
SFRP-1 [2]; [3]
  fold induction at 15 µM: 2.9
SFRP-1 [2]; [4]
  fold induction at 15 µM: 1

Source: patent publication US20060276464A1, “Diarylsulfone sulfonamides and use thereof” (Wyeth, priority 2005, published 2006)
